Source: patent US9586967B2, “Pyrrolo pyrimidine derivative” (ONO PHARMACEUTICAL CO., LTD., priority 2013, dated 2017)
Counter-ions that a name gives are not always drawn.

Legend:
Ba/F3 Axl = assay: Measurement of proliferation suppression rate using mouse pro-B cell line (Ba/F3 Axl) stably expressing Axl; type: cell-based; settings: BaF3, Ba/F3 Axl cells, 48 hours, CELLTITER-GLO, read-out: Proliferation suppression, value of 50% inhibition rate (IC50 value)
Experimental: Measurement of Proliferation Suppression Rate by Using Mouse Pro-B Cell Line (Ba/F3 Axl) Stably Expressing Axl
A 0.1 mmol/L DMSO solution of the test compound was dispensed into a 96-well plate, and further a 3-fold dilution series was prepared using DMSO. DMSO solutions of test compounds, having various concentrations, were further 500-fold diluted with a RPMI1640 medium (containing 10% HI-FBS and 1% penicillin) and a diluted solution of the test compound having […] with respect to the final concentration was prepared. In each well of the 96-well plate (BD Biosciences) for measurement, 50 μL of a RPMI medium was added to the Blank group, 50 μL of a RPMI medium containing 0.2% DMSO was added to the medium group, and 50 μL of the diluted solution of the test compound was added to the test compound group, respectively. Ba/F3 Axl was diluted with a medium to have a density of 2×10^5 cells/mL to prepare a cell suspension. In each well of the 96-well plate for measurement, 50 μL each of the RPMI medium was added to the Blank group, and 50 μL each of the cell suspension was added to the medium group and the test compound group, respectively, and the groups were stood still at 37° C. at 5% CO2 for 48 hours. After standing still, Relative Light Unit (RLU) was measured by using CELLTITER-GLO (registered trademark) LUMINESCENT CELL VIABILITY ASSAY (Promega). The measurement was carried out according to the attached instruction. To each well, 100 μL each of light-emitting solution was added. The plate was stirred at room temperature for 3 min and then stood still at room temperature with light shielded for 10 minutes, and RLU was measured by using Microplate Reader (SpectraMax M5e, Molecular Devices). The average values of RLU of the Blank group and the medium group were respectively calculated, and the proliferation suppression rate of the test compound group was calculated. Proliferation suppression rate (%)={1−(RLU of test compound group−A)/(B−A)}×100 [Math. 2] A: Average value of RLU of Blank group B: Average value of RLU of medium group […]

Axl enzyme = target: T1, Axl enzyme (Homo sapiens, UniProt P30530); assay: Measurement of Axl inhibitory activity (in vitro test, LanthaScreen TR-FRET); type: biochemical; settings: Fluorescein-Poly GT substrate, ATP, read-out: Axl enzyme inhibitory activity, value of 50% inhibition rate (IC50 value)
T1 sequence (P30530 26-894): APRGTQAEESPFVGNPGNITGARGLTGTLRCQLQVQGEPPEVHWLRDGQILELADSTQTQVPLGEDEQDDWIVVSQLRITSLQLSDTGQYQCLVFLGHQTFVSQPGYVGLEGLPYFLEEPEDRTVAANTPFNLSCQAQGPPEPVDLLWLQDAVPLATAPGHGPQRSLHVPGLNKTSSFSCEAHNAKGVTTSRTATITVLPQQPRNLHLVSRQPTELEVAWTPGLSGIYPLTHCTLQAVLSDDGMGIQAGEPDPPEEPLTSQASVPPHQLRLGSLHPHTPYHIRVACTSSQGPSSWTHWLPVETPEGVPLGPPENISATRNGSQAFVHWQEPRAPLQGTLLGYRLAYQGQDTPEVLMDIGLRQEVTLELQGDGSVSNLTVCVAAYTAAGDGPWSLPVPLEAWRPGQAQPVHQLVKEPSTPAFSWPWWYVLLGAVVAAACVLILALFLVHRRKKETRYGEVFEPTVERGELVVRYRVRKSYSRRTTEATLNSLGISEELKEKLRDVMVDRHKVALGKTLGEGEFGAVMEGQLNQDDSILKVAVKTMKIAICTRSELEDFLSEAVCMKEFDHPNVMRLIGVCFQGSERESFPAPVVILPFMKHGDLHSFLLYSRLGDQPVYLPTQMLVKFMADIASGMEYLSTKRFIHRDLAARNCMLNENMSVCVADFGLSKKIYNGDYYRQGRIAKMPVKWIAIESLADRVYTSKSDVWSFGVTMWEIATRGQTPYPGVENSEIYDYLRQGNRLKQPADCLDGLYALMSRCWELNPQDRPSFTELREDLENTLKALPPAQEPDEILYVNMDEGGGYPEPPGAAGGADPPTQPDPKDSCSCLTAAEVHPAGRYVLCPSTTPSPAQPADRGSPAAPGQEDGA
Experimental: Measurement of Axl Inhibitory Activity (In Vitro Test)
The Axl enzyme inhibitory activity was measured by using LanthaScreen (registered trademark) system (Invitrogen) based on the attached instruction. The reagents used are shown below.
Reaction buffer solution: A solution containing 50 mmol/L HEPES (pH7.5), 0.01% Brij35, 10 mmol/L MgCl2 and 1 mmol/L EGTA was prepared by using purified water.
Test substance solution: A solution containing a test compound of 5-fold concentration with respect to the final concentration was prepared by 20-fold diluting a DMSO solution of the test compound of each concentration with the reaction buffer solution.
Enzyme solution: A solution containing 400 ng/mL Axl enzyme was prepared by using the reaction buffer solution.
Substrate solution: A solution containing 45 μmmol/L ATP and 500 nmmol/L Fluorescein-Poly GT (Invitrogen) was prepared by using the reaction buffer solution.
Detection solution: A solution containing 20 mM EDTA and 4 nM PY20 (Invitrogen) was prepared by using Dilution B (Invitrogen).
A 10 mmol/L DMSO solution of the test compound was dispensed into a 96-well plate (Nunc), and, furthermore, a 3-fold dilution series was prepared using DMSO. In each well of the 96-well plate for measurement, 5 μL each of the reaction buffer solution containing DMSO was added to a Blank group and a medium group, and 5 μL of the test substance solution was added to the test substance group, respectively. […] After standing still, fluorescence intensity at 520 nm and 495 nm at the time of irradiation with exciting light of 340 nm was measured by using Analyst GT (Molecular Devices). The phosphorylation of the artificial substrate was quantified by Time-resolved Fluorescence Resonance Energy Transfer (TR-FRET). The TR-FRET ratio was calculated by dividing 520 nm fluorescence signal by 495 nm fluorescence signal for each well, and the inhibition rate (%) in the test compound group was calculated based on the following mathematical formula. […]

IC50 (Ba/F3 Axl)	IC50 (Axl enzyme)	Compound
7 nM	9.7 nM	Cn1cc(-c2ccc(NC(=O)c3cc4c(n(-c5ccccc5)c3=O)CC3(CC3)CC4=O)nc2)c2c(N)ncnc21 [Example 45(24), N-[5-(4-amino-7-methyl-7H-pyrrolo[2,3-d]pyrimidin-5-yl)-2-pyridinyl]-2′,5′-dioxo-1′-phenyl-2′,5′,6′,8′-tetrahydro-1′H-spiro[cyclopropane-1,7′-quinoline]-3′-carboxamide]
10.6 nM	8 nM	Cn1cc(-c2ccc(NC(=O)c3cc(C(F)(F)F)cn(-c4ccccc4)c3=O)cc2)c2c(N)ncnc21 [Example 30, N-[4-(4-amino-7-methyl-7H-pyrrolo[2,3-d]pyrimidin-5-yl)phenyl]-2-oxo-1-phenyl-5-(trifluoromethyl)-1,2-dihydro-3-pyridinecarboxamide trifluoroacetate]
0.8 nM	1.7 nM	CC#CC(=O)NCc1ccc(C(=O)Nc2ccc(-c3cn(C)c4ncnc(N)c34)cc2)c(=O)n1-c1ccccc1 [Example 26, N-[4-(4-amino-7-methyl-7H-pyrrolo[2,3-d]pyrimidine-5-yl)phenyl]-6-[(2-butynoylamino)methyl]-2-oxo-1-phenyl-1,2-dihydro-3-pyridinecarboxamide]
